Data published in US20260199383A1 (priority 2022, published 2026).
≈ marks a conversion by molar mass, not a printed value. Read-outs that look alike come from different tables or passages of the source.

How the values were obtained:
[1] = tested on: primary cultured airway epithelial cells from individuals with CF; conditions: Primary human CF, 2 μM, ref [1], cited from earlier work
[2] = tested on: CuFi-1 cells; conditions: cited from earlier work; for ASL pH / ΔpH: ref [1]; for ΔpH: vs vehicle control
[3] = cited from earlier work
[4] = Solubility of AmB in aqueous media; format: physicochemical; conditions: 37° C.
[5] = tested on: CuFi-1 cells; test: Fluorescence microscopic assay of airway surface liquid (ASL) pH in CuFi-1 cells; format: cell-based, human
Method: Cell Lines and Growth Conditions. NuLi, CuFi-1, and CuFi-4 cells (Welsh Laboratory, University of Iowa) were grown from cryostock on Thermo Scientific BioLite Cell Culture Treated 75 cm^2 flasks. These flasks were previously coated with 4 mL of 60 μg/mL human placental collagen type IV (Sigma-Aldrich) for a minimum of 1 h at 37° C., rinsed twice with PBS, and then dried before seeding. The cells were cultured with 12 mL Bronchial Epithelial Cell Growth Medium (BEGM) BulletKit (Lonza CC-3170), which includes the basal medium and eight SingleQuots of supplements (bovine pituitary extract (BPE), 2 mL; hydrocortisone, 0.5 mL; hEGF, 0.5 mL; adrenaline, 0.5 mL; transferrin, 0.5 mL; insulin, 0.5 mL; retinoic acid, 0.5 mL; triiodothyronine, 0.5 mL). The gentamicin-AmB aliquot was discarded, and the medium was instead supplemented with 50 μg/mL penicillin-streptomycin (Corning Cellgro), 50 μg/mL gentamicin (Sigma-Aldrich G1397), and 2 μg/mL fluconazole (Sigma-Aldrich). […]
Fluorescence Microscopic Assay for Measurement of Airway Surface Liquid pH. […] Following dissolution in methanol, the AmB concentration in the stock suspension was measured in triplicate by absorbance spectroscopy. Concentrations were calculated from the absorbance at 406 nm (8406=164,000 M^−1 cm^−1) using Beer's law. […]
Small-diameter NuLi and CuFi cells were used for measurement of the ASL pH. […] ASL pH was measured 2 h later. […]

[6] = tested on: CuFi-4 cells; conditions: cited from earlier work
[7] = Particle size of wet-milled AmB suspensions (Malvern Mastersizer); format: physicochemical

C[C@@H]1[C@H](O)[C@@H](C)/C=C/C=C/C=C/C=C/C=C/C=C/C=C/[C@H](O[C@@H]2O[C@H](C)[C@@H](O)[C@H](N)[C@@H]2O)C[C@@H]2O[C@](O)(C[C@@H](O)C[C@@H](O)[C@H](O)CC[C@@H](O)C[C@@H](O)CC(=O)O[C@H]1C)C[C@H](O)[C@H]2C(=O)O [AmB, amphotericin B]
ASL pH [1]: 6.97 | ΔpH ([1]; vs vehicle control): +0.21 | ASL pH ([2]; CuFi-1, 2 μM): 7.06 | ΔpH ([2]; CuFi-1, 2 μM): +0.18 | ASL pH ([2]; CuFi-1, 50 μM): 6.80 | ΔpH ([2]; CuFi-1, 50 μM): +0.02 | pKa amine group on the mycosamine ring [3]: 10.0 | pKa carboxylate group [3]: 5.7 | solubility in Gamble's solution [4]: 0.2 µg/mL (≈ 0.216 µM) | solubility in dilute Alveofact [4]: 0.2 µg/mL (≈ 0.216 µM) | solubility in water [4]: 0.5 µg/mL (≈ 0.541 µM) | effect on ASL pH ([5]; CuFi-1, 2 μM in perfluorocarbon vehicle): effective | effect on ASL pH ([5]; CuFi-1, 50 μM AmB): not at a 50 μM AmB concentration

CC(C)(C)c1cc(C(C)(C)C)c(NC(=O)c2c[nH]c3ccccc3c2=O)cc1O [Ivacaftor, ivacaftor]
ASL pH ([2]; CuFi-1, 2 μM): 6.82 | ΔpH ([2]; CuFi-1, 2 μM): +0.07 | increase in ASL pH ([2]; CuFi-1 cells with homozygous ΔF508 mutations): minimal increase in ASL pH | ASL pH ([6]; CuFi-4, 2 μM, ref [1]): 6.92 | ΔpH ([6]; CuFi-4, 2 μM, vs vehicle control, ref [1]): +0.17 | increase in ASL pH ([6]; CuFi-4 cells): about 0.2 pH units

C[C@@H]1[C@H](O)[C@@H](C)/C=C/C=C/C=C/C=C/C=C/C=C/C=C/[C@H](O[C@@H]2O[C@H](C)[C@@H](O)[C@H](N)[C@@H]2O)C[C@@H]2O[C@](O)(C[C@@H](O)C[C@@H](O)[C@H](O)CC[C@@H](O)C[C@@H](O)CC(=O)O[C@H]1C)C[C@H](O)[C@H]2C(=O)O [′202, amphotericin B]
Primary Particle Size X50 after wet-milling ([7]; 1 pass (15 kpsi)): 3.01 μm | Primary Particle Size X90 after wet-milling ([7]; 1 pass (15 kpsi)): 6.93 μm | Primary Particle Size X50 after wet-milling ([7]; 3 passes (15, 15, 20 kpsi)): 2.16 μm | Primary Particle Size X90 after wet-milling ([7]; 3 passes (15, 15, 20 kpsi)): 5.99 μm

C[C@@H]1[C@H](O)[C@@H](C)/C=C/C=C/C=C/C=C/C=C/C=C/C=C/[C@H](O[C@@H]2O[C@H](C)[C@@H](O)[C@H](N)[C@@H]2O)C[C@@H]2O[C@](O)(C[C@@H](O)C[C@@H](O)[C@H](O)CC[C@@H](O)C[C@@H](O)CC(=O)O[C@H]1C)C[C@H](O)[C@H]2C(=O)O [′203, amphotericin B]
Primary Particle Size X50 after wet-milling ([7]; 1 pass (15 kpsi)): 1.14 μm | Primary Particle Size X90 after wet-milling ([7]; 1 pass (15 kpsi)): 2.46 μm | Primary Particle Size X50 after wet-milling ([7]; 3 passes (15, 15, 20 kpsi)): 1.06 μm | Primary Particle Size X90 after wet-milling ([7]; 3 passes (15, 15, 20 kpsi)): 2.14 μm
